How the values were obtained:
[1] = tested on: HCT116 human colorectal cancer cells; experiment: Tumorigenicity assay, HCT116 xenografts in nude mice; format: in vivo; details: for Effect with C. novyi-NT / Effect alone: nude mice; for Effect alone: agent alone
From the text: (§1) All animal protocols were designed in accordance with the Guide for the Care and Use of Laboratory Animals (NIH Publication 86-23) and were approved by the Johns Hopkins University Institutional Animal Care and Use Committee. Six to eight week old mice were implanted subcutaneously on one flank with 3 to 6 million cancer cells. Establishment of tumors of 150 to 500 mm3 took 8 to 21 days, depending on the cell type. C. novyi-NT spores (300×106) and anti-microtubule agents were generally administered by a single intravenous injection through the tail vein in a total volume of 300 to 500 ul phosphate-buffered saline (PBS). Quantitative assessment of tumor growth was performed by measuring subcutaneous tumor grafts (major and minor axis) using electronic calipers. Tumor volume was calculated using the equation: length×width2×0.5. Progression free survival was defined as the length of time following treatment before any increase in tumor volume was observed. Mice were considered “cured” if no tumor was evident three months after treatment. Animals were weighed at least twice a week and carefully observed for signs of toxicity every day for the first week following treatment and then twice a week thereafter. At least five mice were used for each treatment arm described in the Experimental Results.
The timing, route, and dose of agents are critical for the success of any experimental therapy. When two agents are combined, the number of variables that must be tested increases exponentially. To simplify interpretation of the comparisons between various anti-microtubule agents, pilot studies with representative drugs were performed.
Eighteen agents known to interact with microtubules were each tested in this manner in nude mice harboring xenografts of HCT116 human colorectal cancer cells. At least five mice harboring tumors of 150 to 500 mm3 in size were used for each experimental arm. Two classes of responses were noted. One type of response was characterized by a rapid hemorrhagic necrosis, observed only with agents that inhibited microtubule […] (FIG. 1A, B). The other type of response was characterized by a slow regression, observed with agents that stabilized microtubules (FIG. 2A, B).

[2] = tested on: HuCC-T1 cholangiocarcinoma; experiment: Tumorigenicity assay, HuCC-T1 xenografts; format: in vivo, nude mice
From the text: as §1
We next evaluated the responses to COBALT/HTI-286 in other murine tumor models. […]

[3] = Mortality following COBALT; format: in vivo, nude mice; details: deaths within one week, pooled xenograft models
From the text: as §1
(§2) This toxicity was observed only when the combination of C. novyi-NT spores and the drugs was administered and not with either the bacteria or the drugs alone. […] Though major tumor regressions were common, few mice died as a result of therapy (Table 2) No deaths occurred after treatment with the microtubule stabilizers plus C. novyi-NT, while 4% to 8% of mice treated with microtubule destabilizers plus C. novyi-NT died. The only other toxicity observed was transient weight loss (Table 3). Mice treated with the drugs alone lost ˜5 to 10% of their body weight within 7 days, while weight loss after treatment with C. novyi-NT plus these drugs varied from 8% to 18%. All weights recovered to pre-treatment levels within two weeks.

Weight loss after COBALT = format: in vivo, nude mice; details: maximum average weight loss relative to weight one day prior to treatment, HCT116 xenografts
From the text: as §1, §2

[4] = tested on: tumor blood flow in HCT116 xenografts; experiment: Assessment of blood perfusion (Hoechst 33342) in HCT116 xenografts; format: in vivo, mice; details: HTI-286 1.7 mg/kg or docetaxel 50 mg/kg iv, 3 and 24 hr after treatment
Description: Three or 24 hours after treatment, mice were intravenously injected with Hoechst 33342 (40 mg/kg) and euthanized two minutes later. Tumors were cryosectioned and viewed by fluorescence microscopy after counter-staining with acridine orange (AO). Endothelial cells are stained blue when they have taken up the Hoechst 33342 dye. Adjacent sections were stained with MECA-32 monoclonal antibody, a vascular endothelium-specific marker. Arrows point towards normal blood vessels unaffected by HTI-286 treatment in overlying skin.
Mice bearing HCT116 xenografts of 300 to 500 mm3 were injected intravenously with anti-microtubule agents. At various times thereafter, they were intravenously injected with Hoechst 33342 (40 mg/kg), then euthanized two minutes later by CO2 narcosis. Tumors were fixed in Tissue-Tek OTC compound (Sakura Finetek, Torrance, Calif.) and stored at −80° C. Frozen sections 10 microns in thickness were prepared with a Leica Microsystems cryostat and counterstained with acridine orange, 7.5 ug/ml, in PBS for 5 minutes. […] At least three sections of each of three tumors, representing middle and distal parts of the tumor, were examined under fluorescence microscopy for each agent tested, and representative results are illustrated in the figures. […]

[5] = tested on: Glucose Transporter-1 (Glut-1); experiment: Immunohistochemistry for Glut-1 (hypoxia marker) in HCT116 xenografts; format: in vivo, mice; details: HTI-286 1.7 mg/kg or docetaxel 50 mg/kg iv, 6 hr after treatment
Description: Mice were euthanized six hours after treatment. Tumors were sectioned and H & E stained. Adjacent sections were stained for Glut-1 expression, a marker for hypoxia. Cells positive for Glut-1 appear brown. Arrows indicate examples of hemorrhage.
Paraffin sections were deparaffinized, incubated with proteinase K (Invitrogen), heated at 95° C. for 20 min in citrate buffer (pH 6), and treated with peroxidase blocking reagent (Dako). Sections were incubated with a monoclonal antibody against Glucose Transporter-1 (Glut-1, Dako) followed by a biotin-conjugated secondary antibody (Pierce). A third layer consisting of HRP-conjugated anti-biotin (DAKO) was followed by diaminobenzidine (Sigma) staining. Sections were counterstained with eosin.
Two independent tests of this hypothesis were performed. First, we directly assessed hypoxia within tumors by staining with an antibody to Glucose Transporter-1 (Glut-1). Glut-1 has been extensively studied and shown to be specifically expressed only in hypoxic regions (Airley et al., 2001).

C. novyi-NT = experiment: Quantification of C. novyi-NT in tumors by real-time PCR; format: in vivo, C. novyi-NT in mice bearing HCT116 xenografts; details: versus spores without drug; HCT116 xenografts; SD printed +/−0.08 (HTI-286), +/−0.3 (docetaxel)
Description: Mice bearing HCT116 xenografts were treated with C. novyi-NT spores with or without HTI-286 (1.7 mg/kg) as described above. Following euthanasia 24-48 hr later, tumors were harvested, weighed, minced, and Dounce-homogenized. Genomic DNA was isolated using the Qiagen Genomic DNA Buffer Set and Genomic-tip 100/G. 25 ng of DNA was used in a PCR using the conditions described in (Vogelstein and Kinzler, 1999) The following primers specific for the C. novyi-NT phospholipase C gene were used: 5′-[…] (SEQ ID NO:1) and 5′-[…] (SEQ ID NO:2). No detectable primer dimers formed and no nonspecific amplification of mouse or xenograft genomic DNA occurred with these primers and PCR conditions. Real-time PCR was performed using an iCycler, and threshold cycle numbers were calculated using the iCycler Optical system interface software (Bio-Rad Lab, Hercules, Calif.). Averages of the threshold cycle number (Ct) of triplicate measurements per tumor were obtained, and three different tumors were studied for each treatment group. The results were expressed as the difference between the Ct of the treated tumor and the Ct of untreated controls, normalized to tumor weight.
Second, we directly tested the size of bacterial populations within tumors by measuring the number of bacteria at various times following intravenous injection of C. novyi-NT spores into mice bearing HCT116 xenografts. […]

[6] = 50 mg/kg × 1 (iv) with 3×108 C. novyi-NT spores iv

CCC(=O)O[C@H]1C[C@H]2OC[C@@]2(OC(C)=O)[C@H]2[C@H](OC(=O)c3ccccc3)[C@]3(O)C[C@H](OC(=O)[C@H](O)[C@@H](NC(=O)OC(C)(C)C)c4ccco4)C(C)=C([C@@H](O)C(=O)[C@]12C)C3(C)C [MAC-321, 5β,20-epoxy-1,2α-,4-,7β-,10β-,13α-hexahydroxytax-11-en-9-one 4 acetate 2 benzoate 7 propionate 13-ester with (2R,3S)—N-tertbutoxycarbonyl-3-(2-furyl)isoserine]
Effect with C. novyi-NT ([1]; 10 mg/kg × 1 (iv) with 3×108 C. novyi-NT spores iv): ++ (10% to 50% shrinkage in tumor volume relative to pre-treatment size)
Effect with C. novyi-NT ([1]; 45 mg/kg × 1 (iv) with 3×108 C. novyi-NT spores iv): ++++ (>20% cures)
Effect with C. novyi-NT [1, 6]: ++++ (>20% cures)
Effect with C. novyi-NT ([1]; 60 mg/kg × 1 (iv) with 3×108 C. novyi-NT spores iv): ++++ (>20% cures)
Effect with C. novyi-NT ([1]; 70 mg/kg × 1 (iv) with 3×108 C. novyi-NT spores iv): ++++ (>20% cures)
Effect alone ([1]; 10 mg/kg × 1 (iv)): +
Effect alone ([1]; 45 mg/kg × 1 (iv)): +++ (>50% shrinkage in tumor volume relative to pre-treatment size)
Effect alone ([1]; 50 mg/kg × 1 (iv)): +++ (>50% shrinkage in tumor volume relative to pre-treatment size)
Effect alone ([1]; 60 mg/kg × 1 (iv)): +++ (>50% shrinkage in tumor volume relative to pre-treatment size)
Effect alone ([1]; 70 mg/kg × 1 (iv)): +++ (>50% shrinkage in tumor volume relative to pre-treatment size)
mice cured (in words) ([1]; cured = no tumor evident three months after treatment): no mice
mice cured (number of mice) [2]: one of eight
# dead (treatment-related deaths) ([3]; drug dose 45.0 mg/kg): 0
# dead (treatment-related deaths) ([3]; drug dose 50.0 mg/kg): 0
# dead (treatment-related deaths) ([3]; drug dose 60.0 mg/kg): 0
# dead (treatment-related deaths) ([3]; drug dose 70.0 mg/kg): 0
Weight Loss (%) (Weight loss after COBALT; drug dose 60.0 mg/kg): 5.5%

CC(=O)O[C@@]12CO[C@@H]1C[C@H](O)[C@@]1(C)C(=O)[C@H](O)C3=C(C)[C@@H](OC(=O)[C@H](O)[C@@H](NC(=O)OC(C)(C)C)c4ccccc4)C[C@@](O)([C@@H](OC(=O)c4ccccc4)[C@H]21)C3(C)C [docetaxel]
Effect with C. novyi-NT ([1]; 12.5 mg/kg × 1 (iv) with 3×108 C. novyi-NT spores iv): ++ (10% to 50% shrinkage in tumor volume relative to pre-treatment size)
Effect with C. novyi-NT ([1]; 25 mg/kg × 1 (iv) with 3×108 C. novyi-NT spores iv): +++ (>50% shrinkage in tumor volume relative to pre-treatment size)
Effect with C. novyi-NT [1, 6]: ++++ (>20% cures)
Effect with C. novyi-NT ([1]; 75 mg/kg × 1 (iv) with 3×108 C. novyi-NT spores iv): ++++ (>20% cures)
Effect alone ([1]; 12.5 mg/kg × 1 (iv)): +
Effect alone ([1]; 25 mg/kg × 1 (iv)): ++ (10% to 50% shrinkage in tumor volume relative to pre-treatment size)
Effect alone ([1]; 50 mg/kg × 1 (iv)): ++++ (>20% cures)
Effect alone ([1]; 75 mg/kg × 1 (iv)): +++ (>50% shrinkage in tumor volume relative to pre-treatment size)
blood flow to the tumors (Hoechst 33342 labelling) [4]: no observable effects
Glut-1 expression (hypoxia marker) in tumors [5]: No increase
increase in number of C. novyi-NT bacteria in tumor when co-injected with drug (C. novyi-NT): 1.6 fold
# dead (treatment-related deaths) ([3]; drug dose 25.0 mg/kg): 0
# dead (treatment-related deaths) ([3]; drug dose 50.0 mg/kg): 0
# dead (treatment-related deaths) ([3]; drug dose 75.0 mg/kg): 0
Weight Loss (%) (Weight loss after COBALT; drug dose 50.0 mg/kg): 11.0%

Reference: patent US8007782B2, “Combination bacteriolytic therapy for the treatment of tumors” (priority 2003, dated 2011)
